Results: US20080242594A1, “Methods for Promoting Stem Cell Proliferation and Survival” (priority 2005, published 2008)

What was measured:
[1] = system: E13.5 cortical stem cells; test: Differentiation potential of embryonic CNS stem cells after Notch ligand treatment; assay type: cell-based, mouse; conditions: 5 days treatment in bFGF2 20 ng/ml, then mitogen withdrawal (WD) 3 days
Procedure: To test whether Notch activation promoted differentiation or fate commitment, these cultures were treated with either Jagged-1 or Delta-4 for 5 days, […] The proportion of cells expressing genes characteristic of the stem or differentiated cells was determined (FIG. 8A).
The multipotentiality of treated cells was tested more rigorously by plating them at clonal density (50 cells/cm^2). Following five days of Delta-4+FGF2 treatment and 5 days of differentiation, 65% of the clones contained GFAP+, TUJ1+, and CNPase+ cells (FIG. 8B).

[2] = system: HSF6 hES cells; test: hES single cell plating efficiency, HSF-6; assay type: cell-based, human; conditions: singly dissociated cells on MEFs, treated daily for one week
Description: The human ES cell lines HSF-6 (University of California, San Francisco; NIH # UC06, Passage 38-120) and H1 and H9 (WiCell Research Institute, NIH # WA01 and […]) were maintained on mouse embryonic fibroblasts (MEF) according to the suppliers' protocols. Immunocytochemistry and FACS analysis for the expression of Oct4 and SSEA4 and SKY karyotyping established that the starting cells are undifferentiated and have a normal set of chromosomes. For single cell survival experiments, hES colonies were harvested after treatment with 1.5 mg/ml collagenase type IV (Invitrogen), separated from the MEF feeder cells by repeated washing by gravity, gently triturated to break up colonies into small aggregates, further dissociated into a single cell solution by trypsination (0.05% trypsin/0.04% EDTA) and transferred on MEF feeder cells at a density of 10000 cells/ml. Oct-4 positive colonies were counted six days after plating. […]
The pro-survival effects of activation of Notch and inhibition of JAK was tested on HSF-6 (NIH code UC06, http://escell.ucsf.edu), H1 (NIH code WA01, www.wicell.org) and H9 (NIH code WA09, www.wicell.org) hES cells. Singly dissociated hES cells were plated on mouse embryo fibroblasts (MEFs), treated daily for one week and colony numbers counted. […]

[3] = system: spontaneously hypertensive rats (SHR) with permanent middle cerebral artery occlusion; test: Focal ischemia (PMCAO) in rats with intraventricular infusion; assay type: in vivo, rat; conditions: stroked animals
Procedure: For the induction of focal ischemia in rats, male spontaneously hypertensive rats (SHR) underwent permanent middle cerebral artery occlusion (PMCAO) (Leker et al., Stroke 33:1085-92, 2002). This is a highly reproducible model of focal irreversible cerebral ischemia that results in isolated fronto-parietal cortical injury. For motor disability evaluations, animals were analyzed with a standard motor disability protocol (Leker et al., Stroke 34:2000-6, 2003).
(§1) Immuno-positive cells were analyzed by confocal microscopy counted using a non-biased system on slides obtained from homologous coronal slices containing the infarct of each animal at the position between +0.2 and −3.8 mm from the center of the bregma according to stereotaxic coordinates. Cells were enumerated in […] regions of interest, on both the ipsilateral and contralateral hemispheres (to cannula, or cannula and ischemic focus): subventricular zone (SVZ), corpus callosum and white matter and the peri-infarct cortex.
There is growing evidence for an endogenous repair process following injury to the telencephalon. […]
Treatment with Notch ligand with or without FGF2 increased the number of cells that were BrdU labeled in the days immediately following the injury and these cells survived for an additional 5 weeks (FIG. 6d). […] The behavior of animals in the 45 day groups were assessed at the indicated time points.

[4] = system: adult rats; test: Intraventricular infusion in normal adult rats, BrdU labeled cells; assay type: in vivo, rat
Procedure: In-vivo Experiments: All drugs were infused over one week using an Alzet osmotic pump (model 2001 delivering at a rate of 1 μl/hr for seven days). Briefly, an intracerebral cannula connected to the pump was inserted into the right lateral ventricle using the following stereotaxic coordinates: bregma AP +0, Lateral −1.5 mm dorso-ventral 3.3 mm. Animals received IP injection of the tracer BrdU (50 mg/kg) every 12 hours for 5 days beginning on day one post-operatively to label dividing cells.
as §1
The effect of intraventricular administration of Delta-4 was studied in adult rats. As in other tissues, the numbers of stem cells in the adult CNS are precisely controlled. […] In vivo manipulations were designed to ask if Notch ligands can act alone or substantially alter the effect of FGF2 on the numbers of proliferating cells in the SVZ of the normal brain. Animals (N=5-6 per treatment) were fitted with a mini-osmotic pump administering artificial cerebrospinal fluid (ACSF, vehicle), FGF2, Delta-4, or a combination FGF2+Delta-4 for one week into the ventricles of three-month old rats. Animals were also given twice-daily injections of bromodeoxyuridine (BrdU) from post-op days two to six to label cells generated during this time window. Two groups of animals were analyzed at day 7 and day 45 relative to the initiation of protein delivery. Delta-4 doses were chosen to provide a roughly equal concentration in the rat adult cerebrospinal fluid as in the cell culture medium of our in vitro experiments.

[5] = system: Adult SVZ CNS SC; test: Multi-potentiality of adult CNS stem cells after mitogen withdrawal; assay type: cell-based, rat; conditions: FGF2 20 ng/ml 7 days, mitogen withdrawal 7 days
Procedure: Very little protein or mRNA were detected outside the SVZ (FIG. 4g). Adult CNS stem cells can be cultured as a monolayer in vitro (FIG. 4h) and they show similar responses to extracellular signals that regulate stem cell differentiation upon withdrawal of the mitogen that sustains the undifferentiated state (Johe et al., Genes Dev 10:3129-40, 1996). To ask if Notch activation promotes survival in rat adult SVZ cultures, isolated cells were grown in the presence of FGF2 with and without Delta-4 for one week. […] When FGF2 was withdrawn for a week, cells at clonal density generated all three CNS lineages (FIG. 8C, Table 4).

[6] = system: STAT3; test: STAT3 phosphorylation (Ser727, Tyr705) immunoblot in CNS stem cells; assay type: cell-based, mouse
Description: Ligands that activate JAK/STAT signaling promote astrocytic differentiation of CNS stem cells (Johe et al., Genes Dev 10:3129-40, 1996; Raj an et al., J Neurosci 18:3620-9, 1998; Bonni et al., Science 278:477-83, 1997; Song et al., Nat Neurosci 7:229-35, 2004; He et al., Nat Neurosci 8:616-625, 2005). When applying CNTF to CNS stem cells it was noted that low concentrations of CNTF stimulated survival but not expression of astrocyte specific genes. This is consistent with previous observations of Akt phosphorylation downstream of gp130 activation (Taga et al., Annu Rev Immunol 15:797-819, 1997). […] At high concentrations (20 ng/ml) the phosphorylation of Tyr705 can be blocked by an inhibitor of JAK while allowing a CNTF-induced increase in Ser727 phosphorylation (FIG. 2B) (Thompson et al., Bioorg Med Chem Lett 12:1219-23, 2002).
CNTF was used as a positive control; CNTF, induced the phosphorylation on both sites. With both CNTF and Notch activation, phosphorylation peaked at around 30 min. STAT3 phosphorylation on Ser727 following Notch activation was sensitive to the γ-secretase inhibitor DAPT (FIG. 2e). […] In contrast to CNTF, no Tyr705 phosphorylation was detected at any of the doses of Notch receptor ligands.
It was determined that insulin also maintains phosphorylation of serine 727 in STAT3 in foetal neural stem cell cultures.

[7] = system: Notch1; test: Notch activation (Notch1IC / Notch ICD) immunocytochemical detection; assay type: cell-based, mouse
Description: Antibodies were used that specifically bind: Notch1IC (Chemicon, 5352), GFP (Molecular Probes, A11122), Oct3/4 (Santa Cruz, sc-5279), SSEA1 and SSEA4 (Developmental Studies HybridomaBank), Tra-1-60 (Chemicon, MAB4360), Tra-1-81 (Chemicon, MAB4381), human nestin (Chemicon, MAB5326), Sox-1 (Gift from Dr. R Lovell-Badge), TH (Pel-Freez, P40101-0), Tuj1 (Covance, MMS-435P), rat nestin (McKay Lab), GFAP (Dako, z0334), CNPase (Chemicon, MAB326), BrdU (Accurate, H5903), DCX (Santa Cruz, sc-8066), Sox2 (R&D, MAB2018), Hu (Molecular Probes, A21271).
To assay for Notch activation, cultures were treated with the Notch ligands for 1 hour and Notch1 activation was detected by immunocytochemical staining of Notch1IC (FIG. 1b).
(§2) It was determined that insulin facilitates Notch cleavage using immunocytochemical detection.

[8] = system: IGF1/insulin receptor; test: IGF1/insulin receptor phosphorylation in foetal NSC cultures; assay type: cell-based, mouse
Procedure: Specifically, D114 induced the phosphorylation of IGF1/insulin receptor. Peak phosphorylation occurred at 2-5 minutes.
as §2

[9] = system: rat adult subventricular zone central nervous system stem cell cultures; test: Survival of adult SVZ CNS stem cell cultures with insulin and Dll4; assay type: cell-based
Procedure: (§3) As there was a tight correlation between the Notch survival pathway and Hes3, it was investigated as to whether Hes3 is a mediator of the Notch pro-survival signalling. It was determined that both insulin and Notch activation promote the survival of foetal and adult neural stem cell cultures and their effects are additive (Tables 8-9).

[10] = system: adult rat subventricular zone (SVZ); test: Dividing (BrdU+) cells in SVZ after single lateral ventricle injection; assay type: in vivo; conditions: BrdU for 3 days, sacrificed on the 5th day
Procedure: In vivo, Notch and insulin also increase the number of dividing cells in the adult rat subventricular zone (SVZ) 5 days after a single injection It was determined that Notch and insulin co-operate to promote new (BrdU+) cells in vivo. Specifically, the reagents infused in the lateral ventricle of adult rats as a single injection. The rats were then given BrdU for 3 days and sacrificed on the 5th day (Table 10).

[11] = system: mouse fetal central nervous system stem cell cultures; test: Survival of fetal CNS stem cell cultures with insulin and Dll4; assay type: cell-based
Procedure: as §3

[12] = Insulin withdrawal, 2 days and then treat for 1 h

With “FGF2: fibroblast growth factor FGF2 (233-FB) from R&D” as the substance, how does the “% Glia (GFAP)” value [1] read?
Its value is 49.53 ± 4.79%.

What about the “% Neurons (TUJ1)” value [1] of the same substance?
Its value is 42.37 ± 6.85%.

And the “% Oligodendrocytes (CNPase)” value [1]?
Its value is 9.12 ± 2.82%.

And the “plating efficiency relative to FGF2 controls” value [2]?
The value was 100%±15.35.

What about the “size of the injury” value [3] of the same substance?
Its value is 21.0%±3.5 % of hemisphere volume.

What about the “number of proliferating cells / BrdU incorporation” value ([4]; day 7, contralateral site) of the same substance?
Its value is “no significant effect over vehicle”.

And the “number of BrdU labeled cells in SVZ, corpus callosum and cortex” value ([4]; day 7, hemisphere ipsilateral to the cannula)?
Its value is “increased the number of BrdU labeled cells”.

And the “% Glia (GFAP)” value [5]?
The value was 51.8 ± 10.3%.

And the “% Neurons (TUJ1)” value [5]?
Its value is 43.3 ± 10.7%.

And the “% Oligodendrocytes (CNPase)” value [5]?
Its value is 9.4 ± 2.6%.

For “Ins: insulin in the culture medium or infused”, which STAT3-S727 ([6]; +Ins, 2 days) is on record?
The STAT3-S727 was “High”.

What about the STAT3-Y705 ([6]; +Ins, 2 days) of the same substance?
Its STAT3-Y705 is “No signal”.

What about the STAT3-S727 ([6]; −Ins, 2 days→ +Ins, 1 hour) of the same substance?
The STAT3-S727 was “High”.

What about the STAT3-Y705 ([6]; −Ins, 2 days→ +Ins, 1 hour) of the same substance?
Its STAT3-Y705 is “No signal”.

And the “Notch ICD” value ([7]; +Ins, no withdrawal)?
The value was “High”.

And the “Notch ICD” value [7, 12]?
The value was “High”.

What about the “pIGF1 (19H7)” value ([8]; +Ins, no withdrawal) of the same substance?
The value was “High”.

What about the “pIGF1 (3021)” value ([8]; +Ins, no withdrawal) of the same substance?
Its value is “High”.

What about the “pIGF1 (19H7)” value [8, 12] of the same substance?
The value was “High”.

And the “pIGF1 (3021)” value [8, 12]?
Its value is “High”.

And the “Cell #” value [9]?
Its value is “Medium”.

What about the “Cell #” value [10] of the same substance?
Its value is “Medium”.

What about the “Cell #” value [11] of the same substance?
Its value is “Medium”.
